Calls of active or inactive are those of the source. The calls are words filed in the database; no cut-off is given here.
What was measured:
LNCaP [1] = experiment: Induction of apoptosis in human LNCAP cells assessed as increase in FAS expression at 500 ug/ml measured after 24 hrs by Western blot analysis; format: functional, cell-based
[2] = Drug uptake in plasma membrane of human LNCAP cells at 250 to 500 ug/mL incubated for 12 hrs followed by single washout by fluorescence microscopic analysis; format: ADME, cell membranes
LNCaP [3] = experiment: Induction of apoptosis in human LNCAP cells assessed as increase in cleaved PARP expression at 500 ug/ml measured after 24 hrs by western blot analysis; format: functional, cell-based
LNCaP [4] = experiment: Up regulation of CASP8 gene expression in human LNCAP cells at 500 ug/ml measured after 24 hrs by RT profile PCR analysis relative to control; format: functional
[5] = Drug uptake in plasma membrane of human LNCAP cells at 250 to 500 ug/ml incubated for 12 hrs followed by 3 times washout by fluorescence microscopic analysis; format: ADME, cell membranes
LNCaP [6] = experiment: Induction of apoptosis in human LNCAP cells assessed as up regulation of pro-apoptotic protein Bax expression at 500 ug/ml measured after 24 hrs in presence of topotecan by Western blot analysis; format: functional, cell-based
LNCaP [7] = experiment: Up regulation of GADD45A gene expression in human LNCAP cells at 500 ug/ml measured after 24 hrs by RT profile PCR analysis relative to control; format: functional
LNCaP [8] = experiment: Induction of apoptosis in human LNCAP cells assessed as down regulation of survivin expression at 500 ug/ml measured after 24 hrs in presence of topotecan by Western blot analysis; format: functional, cell-based
LNCaP [9] = experiment: Up regulation of TP73 gene expression in human LNCAP cells at 500 ug/ml measured after 24 hrs by RT profile PCR analysis relative to control; format: functional
LNCaP [10] = experiment: Induction of apoptosis in human LNCAP cells assessed as up regulation of cleaved caspase 3 expression at 500 ug/ml measured after 24 hrs in presence of topotecan by Western blot analysis; format: functional, cell-based
LNCaP [11] = experiment: Down regulation of BIRC5 gene expression in human LNCAP cells at 500 ug/ml measured after 24 hrs by RT profile PCR analysis relative to control; format: functional
LNCaP [12] = experiment: Induction of apoptosis in human LNCAP cells assessed as down regulation of Mcl-1 expression at 500 ug/ml measured after 24 hrs in presence of topotecan by Western blot analysis; format: functional, cell-based
LNCaP [13] = experiment: Induction of apoptosis in human LNCAP cells assessed as up regulation of p21 expression at 500 ug/ml measured after 24 hrs by immunoblot analysis; format: functional, cell-based
LNCaP [14] = experiment: Up regulation of BAX gene expression in human LNCAP cells at 500 ug/ml measured after 24 hrs by RT profile PCR analysis relative to control; format: functional
LNCaP [15] = experiment: Induction of apoptosis in human LNCAP cells assessed as increase in FAS expression at 500 ug/ml measured after 24 hrs in presence of topotecan by Western blot analysis; format: functional, cell-based
LNCaP [16] = experiment: Up regulation of TNFRSF10A gene expression in human LNCAP cells at 500 ug/ml measured after 24 hrs by RT profile PCR analysis relative to control; format: functional
LNCaP [17] = experiment: Induction of apoptosis in human LNCAP cells assessed as up regulation of p21 expression at 500 ug/ml measured after 24 hrs in presence of topotecan by immunoblot analysis; format: functional, cell-based
LNCaP [18] = experiment: Induction of apoptosis in 3 hrs FAS inhibitor KP7-6 treated human LNCAP cells assessed as increase in caspase 8 activity at 500 ug/ml measured after 24 hrs by Ac-IETD-pNA substrate based colorimetric assay; format: functional, cell-based
[19] = target: T1, Tumor necrosis factor receptor superfamily member 6 (Homo sapiens) (UniProt P25445); experiment: Activation of FAS receptor in human LNCAP cells assessed as increase in caspase 8 activity at 500 ug/ml measured after 24 hrs by Ac-IETD-pNA substrate based colorimetric assay; format: cell-based
T1 sequence (whole entry): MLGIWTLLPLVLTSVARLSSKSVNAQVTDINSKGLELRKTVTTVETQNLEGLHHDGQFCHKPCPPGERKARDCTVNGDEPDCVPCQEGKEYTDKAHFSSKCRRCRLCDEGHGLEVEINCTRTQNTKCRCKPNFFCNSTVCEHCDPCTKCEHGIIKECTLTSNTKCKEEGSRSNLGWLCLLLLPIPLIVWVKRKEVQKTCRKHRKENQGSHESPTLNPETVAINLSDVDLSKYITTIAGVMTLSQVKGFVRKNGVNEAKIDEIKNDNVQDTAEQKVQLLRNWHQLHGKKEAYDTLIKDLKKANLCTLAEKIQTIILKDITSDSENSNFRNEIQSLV

LNCaP [20] = experiment: Up regulation of TNFRSF1OB gene expression in human LNCAP cells at 500 ug/ml measured after 24 hrs by RT profile PCR analysis relative to control; format: functional
LNCaP [21] = experiment: Induction of apoptosis in human LNCAP cells assessed as down regulation of Bcl2 expression at 500 ug/ml measured after 24 hrs in presence of topotecan by Western blot analysis; format: functional, cell-based
LNCaP [22] = experiment: Cytotoxicity against human LNCAP cells assessed as reduction in cell viability at 500 ug/mL after 24 hrs by trypan blue dye exclusion assay; format: functional, cell-based
LNCaP [23] = experiment: Up regulation of FAS gene expression in human LNCAP cells at 500 ug/ml measured after 24 hrs by RT profile PCR analysis relative to control; format: functional
LNCaP [24] = experiment: Induction of DNA fragmentation in human LNCAP cells at 500 ug/ml measured after 24 hrs by agarose gel electrophoresis; format: functional, cell-based
LNCaP [25] = experiment: Induction of DNA fragmentation in human LNCAP cells at 500 ug/ml measured after 24 hrs in presence of topotecan by agarose gel electrophoresis; format: functional, cell-based
LNCaP [26] = experiment: Induction of apoptosis in human LNCAP cells assessed as increase in caspase 3 activity at 500 ug/ml measured after 24 hrs by Ac-DEVD-pNA substrate based colorimetric assay; format: functional, cell-based
[27] = target: T1, Tumor necrosis factor receptor superfamily member 6 (Homo sapiens); experiment: Activation of FAS receptor in human LNCAP cells assessed as increase in caspase 8 activity at 500 ug/ml measured after 24 hrs in presence of topotecan by Ac-IETD-pNA substrate based colorimetric assay; format: cell-based
LNCaP [28] = experiment: Up regulation of TNFRSF1B gene expression in human LNCAP cells at 500 ug/ml measured after 24 hrs by RT profile PCR analysis relative to control; format: functional
LNCaP [29] = experiment: Induction of apoptosis in human LNCAP cells assessed as increase in caspase 9 activity at 500 ug/ml measured after 24 hrs in presence of topotecan by Ac-LEHD-pNA substrate based colorimetric assay; format: functional, cell-based
LNCaP [30] = experiment: Induction of apoptosis in human LNCAP cells assessed as up regulation of pro-apoptotic protein Apaf-1 expression at 500 ug/ml measured after 24 hrs by Western blot analysis; format: functional, cell-based
LNCaP [31] = experiment: Induction of apoptosis in human LNCAP cells assessed as increase in caspase 3 activity at 500 ug/ml measured after 24 hrs in presence of topotecan by Ac-DEVD-pNA substrate based colorimetric assay; format: functional, cell-based
LNCaP [32] = experiment: Induction of apoptosis in human LNCAP cells assessed as decrease in uncleaved PARP expression at 500 ug/ml measured after 24 hrs in presence of topotecan by Western blot analysis; format: functional, cell-based
LNCaP [33] = experiment: Induction of apoptosis in human LNCAP cells assessed as down regulation of Bcl2 expression at 500 ug/ml measured after 24 hrs by Western blot analysis; format: functional, cell-based
LNCaP [34] = experiment: Induction of apoptosis in human LNCAP cells assessed as Bax/Bcl2 ratio at 500 ug/ml measured after 24 hrs by Western blot analysis; format: functional
[35] = Drug uptake in cytoplasm of human LNCAP cells at 250 to 500 ug/ml incubated for 12 hrs followed by 3 times washout by fluorescence microscopic analysis; format: ADME, subcellular
LNCaP [36] = experiment: Induction of apoptosis in human LNCAP cells assessed as Bax/Bcl2 ratio at 500 ug/ml measured after 24 hrs in presence of topotecan by Western blot analysis; format: functional
LNCaP [37] = experiment: Down regulation of AKT1 gene expression in human LNCAP cells at 500 ug/ml measured after 24 hrs by RT profile PCR analysis relative to control; format: functional
LNCaP [38] = experiment: Induction of apoptosis in human LNCAP cells assessed as up regulation of p53 expression at 500 ug/ml measured after 24 hrs in presence of topotecan by immunoblot analysis; format: functional, cell-based
LNCaP [39] = experiment: Down regulation of IGF1R gene expression in human LNCAP cells at 500 ug/ml measured after 24 hrs by RT profile PCR analysis relative to control; format: functional
LNCaP [40] = experiment: Induction of apoptosis in human LNCAP cells assessed as up regulation of pro-apoptotic protein Apaf-1 expression at 500 ug/ml measured after 24 hrs in presence of topotecan by Western blot analysis; format: functional, cell-based
[41] = Drug uptake in cytoplasm of human LNCAP cells at 250 to 500 ug/mL incubated for 12 hrs followed by single compound washout by fluorescence microscopic analysis; format: ADME, subcellular
LNCaP [42] = experiment: Induction of apoptosis in human LNCAP cells assessed as increase in cleaved PARP expression at 500 ug/ml measured after 24 hrs in presence of topotecan by Western blot analysis; format: functional, cell-based
LNCaP [43] = experiment: Induction of apoptosis against human LNCAP cells assessed as down regulation of survivin expression at 500 ug/ml measured after 24 hrs by Western blot analysis; format: functional, cell-based
LNCaP [44] = experiment: Induction of apoptosis in human LNCAP cells assessed as decrease in uncleaved PARP expression at 500 ug/ml measured after 24 hrs by Western blot analysis; format: functional, cell-based
LNCaP [45] = experiment: Up regulation of BAG1 gene expression in human LNCAP cells at 500 ug/ml measured after 24 hrs by RT profile PCR analysis relative to control; format: functional
LNCaP [46] = experiment: Down regulation of BCL2 gene expression in human LNCAP cells at 500 ug/ml measured after 24 hrs by RT profile PCR analysis relative to control; format: functional
LNCaP [47] = experiment: Induction of apoptosis in human LNCAP cells assessed as down regulation of Mcl-1 expression at 500 ug/ml measured after 24 hrs by Western blot analysis; format: functional, cell-based
LNCaP [48] = experiment: Induction of apoptosis in human LNCAP cells assessed as up regulation of p53 expression at 500 ug/ml measured after 24 hrs by immunoblot analysis; format: functional, cell-based
LNCaP [49] = experiment: Cytotoxicity against human LNCAP cells assessed as reduction in cell viability at 500 ug/ml measured after 24 hrs in presence of topotecan by trypan blue dye exclusion test relative to control; format: functional
LNCaP [50] = experiment: Induction of apoptosis in human LNCAP cells assessed as increase in caspase 9 activity at 500 ug/ml measured after 24 hrs by Ac-LEHD-pNA substrate based colorimetric assay; format: functional, cell-based
LNCaP [51] = experiment: Induction of apoptosis in human LNCAP cells assessed as up regulation of cleaved caspase 3 expression at 500 ug/ml measured after 24 hrs by Western blot analysis; format: functional, cell-based

C/C=C1/C(=C\c2[nH]c(/C=C3N=C(/C=C4/NC(=O)C(CC)=C4C)C(C)=C/3CCC(=O)O)c(CCC(=O)O)c2C)NC(=O)C1C (stereo unspecified)
Activity (LNCaP [1]): Active
Drug uptake [2]: Active
Activity (LNCaP [3]): Active
fold change (FC) (LNCaP [4]): 1.2
Drug uptake [5]: Active
Activity (LNCaP [6]): Active
fold change (FC) (LNCaP [7]): 6.01
Activity (LNCaP [8]): Active
fold change (FC) (LNCaP [9]): 2.23
Activity (LNCaP [10]): Active
fold change (FC) (LNCaP [11]): 0.009
Activity (LNCaP [12]): Active
Activity (LNCaP [13]): Active
fold change (FC) (LNCaP [14]): 3.84
Activity (LNCaP [15]): Active
fold change (FC) (LNCaP [16]): 2.33
Activity (LNCaP [17]): Active
Activity (LNCaP [18]): inactive
Activity [19]: Active
fold change (FC) (LNCaP [20]): 2.72
Activity (LNCaP [21]): Active
Activity (LNCaP [22]): Active
fold change (FC) (LNCaP [23]): 5.34
Activity (LNCaP [24]): Active
Activity (LNCaP [25]): Active
Activity (LNCaP [26]): Active
Activity [27]: Active
fold change (FC) (LNCaP [28]): 1.67
Activity (LNCaP [29]): Active
Activity (LNCaP [30]): Active
Activity (LNCaP [31]): Active
Activity (LNCaP [32]): Active
Activity (LNCaP [33]): Active
Ratio (LNCaP [34]): >1.5
Drug uptake [35]: Not Active
Ratio (LNCaP [36]): >3.5
fold change (FC) (LNCaP [37]): 0.56
Activity (LNCaP [38]): Active
fold change (FC) (LNCaP [39]): 0.47
Activity (LNCaP [40]): Active
Drug uptake [41]: Not Active
Activity (LNCaP [42]): Active
Activity (LNCaP [43]): Active
Activity (LNCaP [44]): Active
fold change (FC) (LNCaP [45]): 1.76
fold change (FC) (LNCaP [46]): 0.45
Activity (LNCaP [47]): Active
Activity (LNCaP [48]): Active
Activity (LNCaP [49]): >65%
Activity (LNCaP [50]): Active
Activity (LNCaP [51]): Active

— ChEMBL document CHEMBL4616599, “Molecular mechanism of C-phycocyanin induced apoptosis in LNCaP cells” (Bioorg Med Chem, 2020)
